Measurements reported in patent US7772383B2, “Chemical PCR: Compositions for enhancing polynucleotide amplification reactions” (The Trustees of Princeton University, priority 2002, dated 2010).

How the values were obtained:
[1] = system: bovine brain glycolipid transfer protein (GTP) cDNA (660 bp); assay: PCR amplification of GTP cDNA with diol additives, standard cycling; type: biochemical; settings: for Potency / Effective range: GTP; for Potency: 95° C. denaturing, 72° C. extension, normalized maximum densitometric volume of target band: 1,5-Pentanediol = 1; for Effective range: concentration interval over which densitometric volume of target band is at least 50% of maximum volume
Experimental: (§1) Amplification reactions were carried out under the following general conditions. Those skilled in the art will appreciate, however, that to the extent that the conditions (set forth in this application) required for specific experiments described in this example were inconsistent with the following general conditions, limited exceptions to the following general conditions were made The general conditions were as follows: 10 Mm Tris-HCl (Ph 8.8), 50 Mm KCl, 1.5 Mm MgCl2, 0.01% (w/v) gelatin, 0.2 Um primers, 0.06 ng/ul template, 0.2 Mm each Dntp, 0.04 U/ul Taq polymerase. The templates used were bovine brain N-WASP cDNA (1518 bp), a 996 bp segment of human myeloid leukocyte c-jun cDNA, a 511 bp segment of human prostate-specific membrane antigen (PSM) cDNA, and bovine brain glycolipid transfer protein (GTP) cDNA (660 bp). cDNA synthesis was carried out using the FIRST-STRAND® RT-PCR kit from Stratagene on the respective mRNAs purchased from Clontech. All amplification reactions for gene were carried out using a single master batch of cDNA. Taq polymerase and dNTPs were obtained from Stratagene. Primers were obtained from Genosys. Primer melting temperatures (Tms) were calculated using the Genosys oligo calculator program. The sequences of the primers were as follows.
(§2) Polymerase chain reactions for the N-WASP gene were conducted on a ROBOCYCLER® Gradient 40 thermal cycler from Stratagene using 100 ul solutions in 600 ul thin-walled tubes. For expediency, amplification of c-jun, PSM and GTP was carried out in a ROBOCYCLER® Gradient 96 thermal cycler from Stratagene using 50 ul solutions in 200 ul thin-walled tubes. Prior to Taq polymerase addition, a hotstart protocol was carried out that consisted of an initial cycle of 95° C. for 5 minutes (11) to ensure complete first-strand separation, followed by a cycle of 54° C. for 5 minutes. Amplifications were run for 30 cycles. […] Extension was done at 72° C. for periods depending on target length: 2 minutes for N-WASP, 1.5 minutes for c-jun and GTP, and 1 minute for PSM. Annealings were carried out either at fixed concentrations of additives using temperature gradients of 38-56° C. for N-WASP and 44-58° C. for the other targets, or at varying concentrations of additives using fixed temperatures of 41° C. for N-WASP, 50° C. for c-jun and PSM, and 54° C. for GTP.
(§3) Amplification products were analyzed by agarose gel electrophoresis on 0.8% agarose gels in which 20 ul reaction products were loaded with 4 ul loading buffer. Gels were stained with ethidium bromide, visualized on a UV transilluminator (Fisher), and documented by photography. Densitometric quantitation of amplification products was carried out using IMAGE SCANNER® and IMAGE MASTER® software from Amersham Pharmacia. Background correction was done using the software's rolling disc method.
Investigations into the PCR enhancing capabilities of diol cosolvents were carried out using GTP as the primary template. […] The standard protocol for annealing temperature and concentration gradient screening was again followed. […] These cosolvents were thus omitted from further studies. The optimal annealing temperatures for the remaining compounds were: ethylene glycol, 1,2-propanediol, 1,3-propanediol and cis-1,2-cyclopentanediol—58° C.; 1,2-butanediol—54° C.; 1,3-butanediol and 1,4-butanediol—[…]; 2,4-pentanediol, 1,5-pentanediol, 1,6-hexanediol and MPD—56° C.

[2] = system: 511 bp segment of human prostate-specific membrane antigen (PSM) cDNA; assay: PCR amplification of PSM cDNA with diol additives, standard cycling; type: biochemical; settings: PSM; for Specificity: best specificity (densitometric volume of target as percent of total volume) over the effective range; for Effective range: concentration interval over which densitometric volume of target is at least 50% of maximum; for Potency: normalized maximum densitometric volume of target band: 1,3-Butanediol = 1
Experimental: as §1, §2, §3
(§4) With PSM, 1,2-propanediol, 1,2-butanediol, 1,3-butanediol, 1,4-butanediol and glycerol were tested; with c-jun, ethylene glycol and 1,3-propanediol were also tested in addition to these compounds. […] The following additive concentrations were tested using these annealing temperatures: 1,2-propanediol—0.5, 0.8, 1.1, 1.4, 1.7 and 2.0M; 1,2-butanediol—0.1, 0.3, 0.5, 0.6, 0.7 and 0.8M; 1,3-butanediol—0.1, 0.3, 0.5, 0.6, 0.9, 1.1, 1.2M; 1,4-butanediol—0.1 to 1.1M in 0.2M intervals; 1,5-pentanediol—0.1-0.6M in 0.1M intervals; glycerol—0.5 to 1.9M in 0.2M intervals, and 2.2M.

[3] = system: 996 bp segment of human myeloid leukocyte c-jun cDNA; assay: PCR amplification of c-jun cDNA with diol additives, standard cycling; type: biochemical; settings: c-jun; for Effective range: concentration interval over which densitometric volume of target band is at least 50% of maximum volume; for Potency: normalized maximum densitometric volume of target band: 1,5-Pentanediol = 1
Experimental: as §1, §2, §3, §4

50% GC DNA = assay: Predicted cosolvent-induced Tm depression of DNA; type: physicochemical; settings: 1.0M 1,5-pentanediol, 0.7M 1,6-hexanediol, linearity not verified
Experimental: The compounds utilized in the first phase (testing using 1.0M 1,5-pentanediol and 0.7M 1,6-hexanediol at temperatures between 46 and 62° C.) were chosen on the basis of the following rationale. The optimal additive for a low temperature PCR reaction is one that lowers the melting temperature of DNA as much as possible while minimally compromising polymerase activity. 1,5-Pentanediol and 1,6-hexanediol are both powerful DNA melting agents. In addition, it was found in the 62° C. activity studies that the rate of activity decline with concentration of 1,5-pentanediol was roughly equivalent to that of 1,2-butanediol, despite the fact that the former is a much stronger DNA denaturant. 1.0M 1,5-pentanediol and 0.7M 1,6-hexanediol are predicted to lower the Tm of a 50% GC DNA by approximately the same amount: 19° C.

| SMILES | Potency [1] | Effective range [1] | GTP Potency ([1]; comparative standard 95/55/72° C., 0.3 M, best result under conventional conditions, normalization reference) | Specificity [2] | Effective range [2] | Potency [2] | Effective range [3] | Potency [3] | lowering of the Tm of a 50% GC DNA (50% GC DNA) |
| --- | --- | --- | --- | --- | --- | --- | --- | --- | --- |
| OCCCCCO [1,5-Pentanediol] | 1.00 | 0.16 to 0.47 M | 1.00 | 94% | 0.31 to 0.49 M | 0.54 | 0.17 to 0.45 M | 1.00 | ~19 °C |
| CCC(O)CO (stereo not shown) [1,2-Butanediol] | 0.57 | 0.08 to 0.62 M |  | 92% | 0.34 to 0.73 M | 0.42 | 0.27 to 0.74 M | 0.64 |  |
